Source: patent US9296757B2, “Substituted benzothienopyrimidines” (BAYER PHARMA AKTIENGESELLSCHAFT, priority 2012, dated 2016)

molecular target: human full-length MKNK1 (Homo sapiens (Human), UniProt Q9BUB5, T344D); test: MKNK1 kinase high ATP assay (TR-FRET); assay type: biochemical; conditions: high ATP (2 mM final), 15 min preincubation with enzyme
Protocol: MKNK1-inhibitory activity at high ATP of compounds of the present invention after their preincubation with MKNK1 was quantified employing the TR-FRET-based MKNK1 high ATP assay as described in the following paragraphs.
A recombinant fusion protein of Glutathione-S-Transferase (GST, N-terminally) and human full-length MKNK1 (amino acids 1-424 and T344D of accession number BAA 19885.1), expressed in insect cells using baculovirus expression system and purified via glutathione sepharose affinity chromatography, was purchased from Carna Biosciences (product no 02-145) and used as enzyme. As substrate for the kinase reaction the biotinylated peptide biotin-Ahx-IKKRKLTRRKSLKG (C-terminus in amide form) was used, which can be purchased e.g. from the company Biosyntan (Berlin-Buch, Germany).
For the assay 50 nL of a 100 fold concentrated solution of the test compound in DMSO was pipetted into a black low volume 384 well microtiter plate (Greiner Bio-One, Frickenhausen, Germany), 2 μL of a solution of MKNK1 in aqueous assay buffer [50 mM HEPES pH 7.5, 5 mM MgCl2, 1.0 mM dithiothreitol, 0.005% (v/v) Nonidet-P40 (Sigma)] was added and the mixture was incubated for 15 min at 22° C. to allow pre-binding of the test compounds to the enzyme before the start of the kinase reaction. Then the kinase reaction was started by the addition of 3 μL of a solution of adenosine-tri-phosphate (ATP, 3.3 mM=>final conc. in the 5 μL assay volume is 2 mM) and substrate (0.1 μM=>final conc. in the 5 μL assay volume is 0.06 μM) in assay buffer and the resulting mixture was incubated for a reaction time of 30 min at 22° C. The concentration of MKNK1 was adjusted depending of the activity of the enzyme lot and was chosen appropriate to have the assay in the linear range, typical concentrations were in the range of 0.003 μg/mL. The reaction was stopped by the addition of 5 μL of a solution of TR-FRET detection reagents (5 nM streptavidine-XL665 [Cisbio Bioassays, Codolet, France] and 1 nM anti-ribosomal protein S6 (pSer236)-antibody from Invitrogen [#44921G] and 1 nM LANCE EU-W1024 labeled ProteinG [Perkin-Elmer, product no. AD0071]) in an aqueous EDTA-solution (100 mM EDTA, 0.1% (w/v) bovine serum albumin in 50 mM HEPES pH 7.5).
The resulting mixture was incubated for 1 h at 22° C. to allow the formation of complex between the phosphorylated biotinylated peptide and the detection reagents. Subsequently the amount of phosphorylated substrate was evaluated by measurement of the resonance energy transfer from the Eu-chelate to the streptavidine-XL. Therefore, the fluorescence emissions at 620 nm and 665 nm after excitation at 350 nm were measured in a TR-FRET reader, e.g. a Rubystar (BMG Labtechnologies, Offenburg, Germany) or a Viewlux (Perkin-Elmer). The ratio of the emissions at 665 nm and at […] was taken as the measure for the amount of phosphorylated substrate. The data were normalised (enzyme reaction without inhibitor=0% inhibition, all other assay components but no enzyme=100% inhibition).

human full-length MKNK1, sequence (Q9BUB5 other isoform, or with tags, fused parts or gaps T344D): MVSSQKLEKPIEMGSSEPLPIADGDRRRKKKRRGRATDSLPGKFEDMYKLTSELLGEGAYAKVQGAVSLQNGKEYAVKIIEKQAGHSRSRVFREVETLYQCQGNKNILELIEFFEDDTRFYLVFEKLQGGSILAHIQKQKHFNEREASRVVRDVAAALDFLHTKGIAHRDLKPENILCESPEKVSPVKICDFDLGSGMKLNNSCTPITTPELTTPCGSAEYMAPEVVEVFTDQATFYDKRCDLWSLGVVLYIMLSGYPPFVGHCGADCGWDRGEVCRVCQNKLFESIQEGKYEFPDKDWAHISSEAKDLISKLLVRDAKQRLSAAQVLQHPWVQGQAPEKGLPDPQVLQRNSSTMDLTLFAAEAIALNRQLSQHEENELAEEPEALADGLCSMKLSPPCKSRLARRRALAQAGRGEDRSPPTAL

Compound	IC50 [nM]
O=C(NCC1CCc2c(sc3ncnc(Nc4ccc5[nH]c(=O)sc5c4)c23)C1)[C@@H](O)Cc1ccccc1 (mixture of isomers) [Example 23, (2R)-2-Hydroxy-N-({(7RS)-4-[(2-oxo-2,3-dihydro-1,3-benzothiazol-6-yl)amino]-5,6,7,8-tetrahydro[1]benzothieno[2,3-d]pyrimidin-7-yl}methyl)-3-phenylpropanamide]	43
CC(C)(C)OC(=O)N[C@@H](CCO)C(=O)NCC1CCc2c(sc3ncnc(Nc4ccc5[nH]c(=O)sc5c4)c23)C1 (mixture of isomers) [Example 27, tert-Butyl {(2R)-4-hydroxy-1-oxo-1-[({(7RS)-4-[(2-oxo-2,3-dihydro-1,3-benzothiazol-6-yl)amino]-5,6,7,8-tetrahydro[1]benzothieno[2,3-d]pyrimidin-7-yl}methyl)amino]butan-2-yl}carbamate]	100
N[C@@H](CCO)C(=O)NCC1CCc2c(sc3ncnc(Nc4ccc5[nH]c(=O)sc5c4)c23)C1 (mixture of isomers) [Example 32, N-({4-[(2-Oxo-2,3-dihydro-1,3-benzothiazol-6-yl)amino]-5,6,7,8-tetrahydro[1]benzothieno[2,3-d]pyrimidin-7-(RS)-yl}methyl)-L-homoserinamide]	92
CCOC(=O)C1CCc2c(sc3ncnc(Nc4ccc5[nH]c(=O)sc5c4)c23)C1 (racemic) [Example 1, (RS)-Ethyl 4-[(2-oxo-2,3-dihydro-1,3-benzothiazol-6-yl)amino]-5,6,7,8-tetrahydro[1]benzothieno[2,3-d]pyrimidine-7-carboxylate]	47
O=C(O)C1CCc2c(sc3ncnc(Nc4ccc5[nH]c(=O)sc5c4)c23)C1 (racemic) [Example 2, (RS)-4-[(2-Oxo-2,3-dihydro-1,3-benzothiazol-6-yl)amino]-5,6,7,8-tetrahydro[1]benzothieno[2,3-d]pyrimidine-7-carboxylic acid]	108
CCNC(=O)C1CCc2c(sc3ncnc(Nc4ccc5[nH]c(=O)sc5c4)c23)C1 (racemic) [Example 3, (RS)—N-Ethyl-4-[(2-oxo-2,3-dihydro-1,3-benzothiazol-6-yl)amino]-5,6,7,8-tetrahydro[1]benzothieno[2,3-d]pyrimidine-7-carboxamide]	39
O=C(NC1CC1)C1CCc2c(sc3ncnc(Nc4ccc5[nH]c(=O)sc5c4)c23)C1 (racemic) [Example 4, (RS)—N-Cyclopropyl-4-[(2-oxo-2,3-dihydro-1,3-benzothiazol-6-yl)amino]-5,6,7,8-tetrahydro[1]benzothieno[2,3-d]pyrimidine-7-carboxamide]	57
CC(C)NC(=O)C1CCc2c(sc3ncnc(Nc4ccc5[nH]c(=O)sc5c4)c23)C1 (racemic) [Example 5, (RS)—N-Isopropyl-4-[(2-oxo-2,3-dihydro-1,3-benzothiazol-6-yl)amino]-5,6,7,8-tetrahydro[1]benzothieno[2,3-d]pyrimidine-7-carboxamide]	36
CC(C)CNC(=O)C1CCc2c(sc3ncnc(Nc4ccc5[nH]c(=O)sc5c4)c23)C1 (racemic) [Example 6, (RS)—N-Isobutyl-4-[(2-oxo-2,3-dihydro-1,3-benzothiazol-6-yl)amino]-5,6,7,8-tetrahydro[1]benzothieno[2,3-d]pyrimidine-7-carboxamide]	40
O=C(NCCC(F)(F)F)C1CCc2c(sc3ncnc(Nc4ccc5[nH]c(=O)sc5c4)c23)C1 (racemic) [Example 7, (RS)-4-[(2-Oxo-2,3-dihydro-1,3-benzothiazol-6-yl)amino]-N-(3,3,3-trifluoropropyl)-5,6,7,8-tetrahydro[1]benzothieno[2,3-d]pyrimidine-7-carboxamide]	42
O=C(Nc1ccccc1)C1CCc2c(sc3ncnc(Nc4ccc5[nH]c(=O)sc5c4)c23)C1 (racemic) [Example 8, (RS)-4-[(2-Oxo-2,3-dihydro-1,3-benzothiazol-6-yl)amino]-N-phenyl-5,6,7,8-tetrahydro[1]benzothieno[2,3-d]pyrimidine-7-carboxamide]	33
O=C(NCc1ccccc1)C1CCc2c(sc3ncnc(Nc4ccc5[nH]c(=O)sc5c4)c23)C1 (racemic) [Example 9, (RS)—N-Benzyl-4-[(2-oxo-2,3-dihydro-1,3-benzothiazol-6-yl)amino]-5,6,7,8-tetrahydro[1]benzothieno[2,3-d]pyrimidine-7-carboxamide]	9
O=C(NCc1cccc(C(F)(F)F)c1)C1CCc2c(sc3ncnc(Nc4ccc5[nH]c(=O)sc5c4)c23)C1 (racemic) [Example 10, (RS)-4-[(2-Oxo-2,3-dihydro-1,3-benzothiazol-6-yl)amino]-N-[3-(trifluoromethyl)benzyl]-5,6,7,8-tetrahydro[1]benzothieno[2,3-d]pyrimidine-7-carboxamide]	11
CNC(=O)C1CCc2c(sc3ncnc(Nc4ccc5[nH]c(=O)sc5c4)c23)C1 (racemic) [Example 11, (RS)—N-Methyl-4-[(2-oxo-2,3-dihydro-1,3-benzothiazol-6-yl)amino]-5,6,7,8-tetrahydro[1]benzothieno[2,3-d]pyrimidine-7-carboxamide]	91
O=C(NCC1CC1)C1CCc2c(sc3ncnc(Nc4ccc5[nH]c(=O)sc5c4)c23)C1 (racemic) [Example 12, (RS)—N-(Cyclopropylmethyl)-4-[(2-oxo-2,3-dihydro-1,3-benzothiazol-6-yl)amino]-5,6,7,8-tetrahydro[1]benzothieno[2,3-d]pyrimidine-7-carboxamide]	48
CN(C)C(=O)C1CCc2c(sc3ncnc(Nc4ccc5[nH]c(=O)sc5c4)c23)C1 (racemic) [Example 13, (RS)—N,N-Dimethyl-4-[(2-oxo-2,3-dihydro-1,3-benzothiazol-6-yl)amino]-5,6,7,8-tetrahydro[1]benzothieno[2,3-d]pyrimidine-7-carboxamide]	41
O=C(NCc1cccc(F)c1)C1CCc2c(sc3ncnc(Nc4ccc5[nH]c(=O)sc5c4)c23)C1 (racemic) [Example 14, (RS)—N-(3-Fluorobenzyl)-4-[(2-oxo-2,3-dihydro-1,3-benzothiazol-6-yl)amino]-5,6,7,8-tetrahydro[1]benzothieno[2,3-d]pyrimidine-7-carboxamide]	25
O=C(NCC(F)(F)F)C1CCc2c(sc3ncnc(Nc4ccc5[nH]c(=O)sc5c4)c23)C1 (racemic) [Example 15, (RS)-4-[(2-oxo-2,3-dihydro-1,3-benzothiazol-6-yl)amino]-N-(2,2,2-trifluoroethyl)-5,6,7,8-tetrahydro[1]benzothieno[2,3-d]pyrimidine-7-carboxamide]	85
COCC1(OC)CCc2c(sc3ncnc(Nc4ccc5[nH]c(=O)sc5c4)c23)C1 (racemic) [Example 16, (RS)-6-{[7-Methoxy-7-(methoxymethyl)-5,6,7,8-tetrahydro[1]benzothieno[2,3-d]pyrimidin-4-yl]amino}-1,3-benzothiazol-2(3H)-one]	304
CC1CCc2c(sc3ncnc(Nc4ccc5[nH]c(=O)sc5c4)c23)C1 (racemic) [Example 17, (RS)-6-[(7-Methyl-5,6,7,8-tetrahydro[1]benzothieno[2,3-d]pyrimidin-4-yl)amino]-1,3-benzothiazol-2(3H)-one]	128
O=c1[nH]c2ccc(Nc3ncnc4sc5c(c34)CCC(CO)C5)cc2s1 (racemic) [Example 18, (RS)-6-{[7-(Hydroxymethyl)-5,6,7,8-tetrahydro[1]benzothieno[2,3-d]pyrimidin-4-yl]amino}-1,3-benzothiazol-2(3H)-one]	60
